According to patent US10604473B2, “Lipids that increase insulin sensitivity and methods of using the same” (Beth Israel Deaconess Medical Center, Inc., priority 2013, dated 2020):

How the values were obtained:
[1] = tested on: LPS-activated dendritic cells; assay: LPS-induced activation of bone marrow-derived dendritic cells; assay type: cell-based, mouse
Procedure: Mouse bone marrow cells were flushed from the femurs and tibiae. The red blood cells were eliminated and the cells plated at a density of 1.0×10^6 cells/mL in RBMI complete medium containing 10% FCS plus 20 ng/ml GM-CSF. The medium was replaced on day 4, and the cells were harvested on day 6 to obtain immature DCs. To obtain mature DCs, LPS was added to the cultures at a final concentration of 100 ng/mL on day 6, and the cells were cultured for an additional 24 h, as previously described by Macia, L., et al. Impairment of dendritic cell functionality and steady-state number in obese mice. J Immunol 177, 5997-6006 (2006), which is incorporated by reference in its entirety. To test the anti-inflammatory effects of 9-PAHSA, immature BMDC were treated with 9-PAHSA in a dose response dependent manner in the presence of 100 ng/mL of LPS. The activation status of the BMDCs was evaluated by measuring the expression of MHCII and co-stimulatory molecules using Flow Cytometry and by the production of pro-inflammatory cytokines (IL-6, TNF, IL-12 and IL-1β) which was assessed by ELISA.
Mouse bone marrow cells were flushed from the femurs and tibiae. The red blood cells were lysed, and the cells were plated at a density of 0.5×10^6 cells/mL in RPMI 1640 Low medium (Gibco, USA) containing 10% FCS (Gibco, USA) and 20 ng/mL GM-CSF. […]
The immature dendritic cells obtained in the day 6 were maturated with LPS in the presence of different concentrations of 9-PAHSA varying between 100 ng/mL to 20 ug/mL. The cells were maturated for 24 h and the maturation status analyzed by cytokine production and co-stimulatory molecules expression.
The cells were analyzed by Multicolor Flow cytometry. […] The cells were analyzed with an LSR II flow cytometer (BD) and FlowJo software.
An ELISA assay (Biolegend) was used to measure the concentration of IL-12p70 protein in conditioned media from immature and mature BMDCs. This assay allowed for the detection of total IL-12p70 concentrations in the range of 15.6-1,000 pg/ml, and the results are expressed as pg/mL IL-12p70.

[2] = Serum 5-PAHSA after oral administration; assay type: in vivo, mouse; details: oral gavage
Procedure: FIG. 56 is a bar graph showing serum 5-PAHSA levels after oral administration of synthesized 5-PAHSA. 3 h after food removal, mice were gavaged with 30 mg/kg body weight (chow-fed) or 45 mg/kg body weight (HFD-fed) of 5-PAHSA. 5 h post gavage, blood was collected via tail vein and serum 5-PAHSA was analyzed by mass spectrometry. n=3 mice per group. Data are expressed as mean±s.e.m. *p<0.05 vs. vehicle treated on the same diet; and δp<0.05 vs. chow vehicle.

[3] = tested on: aged chow-fed mice; assay: Oral glucose tolerance test in aged chow-fed mice, with serum insulin and GLP-1; assay type: in vivo, mouse
Procedure: Area under the curve (AUC), *p<0.05 compared to vehicle. […] Area above the curve (AAC). *p<0.05 compared to vehicle. […] Area under the curve (AUC). *p<0.05 compared to vehicle. FIG. 53D is a bar graph showing serum insulin levels 5 min post glucose challenge in chow-fed mice gavaged with 5-PAHSA or vehicle (glucose values shown in FIG. 53C). n=12-14 per group, *p<0.05 compared to vehicle by t-test. FIG. 53E is a bar graph showing serum GLP-1 levels 5 min post glucose challenge from chow-fed mice gavaged with 5-PAHSA or vehicle (glucose levels in FIG. 53C). n=12-14 per group, *p<0.05 compared to vehicle by t-test. FIG. 53F are bar graphs showing insulin secretion from primary human islets from two independent donors. Islets were incubated with low (2.5 mM) or high (20 mM) glucose ex vivo in the presence of 5-PAHSA (20 μM) or vehicle control. n=100 islets per condition, *p<0.05 compared to control 2.5 mM glucose, ^#p<0.05 compared to respective treatments at 2.5 mM glucose, ^$p<0.05 compared to control or diluents at 20 mM glucose by t-test. FIG. 53G are bar graphs showing active GLP-1 secretion from STC-1 cells in response to 5-PAHSA (5-P), 9-PAHSA (9P), […] (LA), GW9508 (GW) or vehicle control (DMSO). n=4 per group, *p<0.05 compared to vehicle by t-test. All data are mean±s.e.m. See also FIG. 56.
Studies were conducted to determine whether the PAHSA effects to improve glucose tolerance resulted entirely from the increased insulin sensitivity or also from improved insulin secretion. Therefore, the effects of PAHSAs on glucose-stimulated insulin secretion were tested in vivo in aged (47 weeks old) chow-fed mice. […] Thus, PAHSAs acutely improve insulin sensitivity and glucose tolerance and stimulate GLP-1 and insulin secretion.

[4] = 5 minutes after glucose administration

## CCCCCCCCCCCCCCCC(=O)OC(CCCCCCCCC)CCCCCCCC(=O)O (centres unmarked) [9-PAHSA, palmitoyl-9-hydroxystearic acid]
[1]; LPS 100 ng/mL
  IL-12 production: blocks IL-12 production
[1]; LPS-induced
  expression of MHCII and co-stimulatory molecules (CD40, CD80, CD86): reducing expression of MHCII and co-stimulatory molecules
[1]; dose response
  LPS-induced dendritic cell activation: prevents LPS-induced dendritic cell activation in a dose dependent manner

## CCCCCCCCCCCCCCCC(=O)OC(CCCCCCCCCCCCC)CCCC(=O)O (centres unmarked) [5-PAHSA]
[2]; HFD-fed mice
  serum 5-PAHSA levels versus chow baseline: more than restored the levels
[2]; mice on chow (30 mg/kg) and HFD (45 mg/kg), 5 h post gavage
  increase in serum 5-PAHSA levels: 3-5 fold
[3]; [4]
  GLP-1 levels: increased
  insulin secretion: acute enhancement of insulin secretion
[3]; OGTT, gavage 30 min prior
  glucose tolerance: improved glucose tolerance
